Data taken from ChEMBL document CHEMBL1201862, “PubChem BioAssay data set” (2004).
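In this assay, cells in 96-well plates receive the compound at five concentrations for 48 hours. Endpoints are linearly interpolated between the surrounding concentrations. Abbreviation: GI50, concentration required for 50% inhibition of growth.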 The source made the active and inactive calls. Cut-off read from the data, not from the text of the source: active = GI50 up to about 1.1 µM and inactive = higher.

What was measured:
Assay in all cases: inhibition of tumour cell growth, NCI panel, 48 h
NCI-H522 = system: NCI-H522
SK-MEL-5 = system: SK-MEL-5
U-251 = system: U-251
UACC-257 = system: UACC-257
NCI-H23 = system: NCI-H23
IGROV-1 = system: IGROV-1
SNB-75 = system: SNB-75
SK-OV-3 = system: SK-OV-3
TK-10 = system: TK-10
HCC 2998 = system: HCC 2998
OVCAR-3 = system: OVCAR-3
SW-620 = system: SW-620
SK-MEL-28 = system: SK-MEL-28
SK-MEL-2 = system: SK-MEL-2
SR = system: SR
HCT-116 = system: HCT-116
HOP-92 = system: HOP-92

Measured: GI50

COc1ccc(/C=C2\Cc3ccccc3C2=O)cc1OC
inactive: NCI-H522 70.6 µM | SK-MEL-5 63.4 µM | U-251 > 100 µM | UACC-257 > 100 µM | NCI-H23 91.6 µM | IGROV-1 > 100 µM | SNB-75 > 10 µM | SK-OV-3 > 100 µM | TK-10 > 100 µM | HCC 2998 > 100 µM | OVCAR-3 > 100 µM | SW-620 > 100 µM | SK-MEL-28 > 100 µM | SK-MEL-2 > 100 µM

COc1ccc(-c2cc(O)c3cc4c(cc3n2)OCO4)cc1
inactive: SK-MEL-5 > 100 µM | SR > 100 µM | U-251 > 100 µM | HCT-116 > 100 µM | UACC-257 > 100 µM | NCI-H23 > 100 µM | IGROV-1 > 100 µM | SNB-75 29.8 µM | TK-10 > 100 µM | HCC 2998 > 100 µM | OVCAR-3 > 100 µM | SW-620 > 100 µM | SK-MEL-28 > 100 µM | SK-MEL-2 > 100 µM

C=C1C(=O)O[C@H]2C[C@@H](C)[C@@H]3CC(=O)OC[C@@]3(C)CC12 (stereo partly specified)
inactive: NCI-H522 3.56 µM | SK-MEL-5 34.3 µM | U-251 97.3 µM | HCT-116 21 µM | NCI-H23 23.3 µM | IGROV-1 51.6 µM | SNB-75 30.1 µM | SK-OV-3 97.7 µM | TK-10 22.8 µM | HCC 2998 32.1 µM | OVCAR-3 28 µM | SW-620 16.7 µM | SK-MEL-28 19.7 µM | HOP-92 16.1 µM | SK-MEL-2 35.8 µM

Nc1nc(N)c(CCCCc2ccccc2)c(C=O)n1
inactive: SK-MEL-5 17 µM | U-251 22.9 µM | HCT-116 13.1 µM | UACC-257 13.6 µM | NCI-H23 19 µM | IGROV-1 17.8 µM | SNB-75 12.7 µM | SK-OV-3 31.1 µM | TK-10 27.6 µM | HCC 2998 26.5 µM | OVCAR-3 14.3 µM | SW-620 11.7 µM | SK-MEL-28 15.9 µM | SK-MEL-2 20 µM

COC(=O)C(Cc1nc2ccccc2nc1O)/C(=N\NC(C)(C)C)C(=O)Nc1c(C)cc(Br)cc1C (stereo unspecified)
inactive: NCI-H522 15.1 µM | SK-MEL-5 18.3 µM | SR 20.5 µM | U-251 19.2 µM | HCT-116 18.6 µM | UACC-257 33.9 µM | NCI-H23 25.2 µM | IGROV-1 36.3 µM | SK-OV-3 50.5 µM | HCC 2998 73.1 µM | OVCAR-3 > 10 µM | SW-620 35.2 µM | SK-MEL-28 20 µM | HOP-92 18.7 µM | SK-MEL-2 31 µM

CCOc1ccc(NC(=O)CC2Sc3ccccc3NC2=O)cc1 (stereo unspecified)
inactive: NCI-H522 > 100 µM | SK-MEL-5 > 100 µM | U-251 45 µM | HCT-116 25.2 µM | UACC-257 > 100 µM | NCI-H23 > 100 µM | IGROV-1 > 100 µM | SNB-75 31.6 µM | SK-OV-3 41.3 µM | TK-10 60.5 µM | HCC 2998 38.2 µM | OVCAR-3 42.3 µM | SW-620 14.5 µM | SK-MEL-28 > 100 µM

CC(C)=CCC/C(C)=C/CC/C(C)=C/CCC1(C)CCC([C@H](C)C(=O)O)OO1.CC1=C(CC/C(C)=C/CCC2(C)CCC([C@H](C)C(=O)O)OO2)C(C)(C)CCC1 (stereo partly specified)
inactive: NCI-H522 > 100 µM | U-251 > 100 µM | HCT-116 > 100 µM | UACC-257 > 100 µM | NCI-H23 > 100 µM | SNB-75 > 100 µM | TK-10 > 100 µM | HCC 2998 85.3 µM | OVCAR-3 > 100 µM | SW-620 > 100 µM | SK-MEL-28 > 100 µM | HOP-92 > 100 µM | SK-MEL-2 > 100 µM

CC(=O)Oc1ccc(CO)cc1OC(C)=O
inactive: NCI-H522 36.3 µM | SK-MEL-5 > 100 µM | SR > 100 µM | U-251 > 100 µM | HCT-116 > 100 µM | UACC-257 > 100 µM | SNB-75 > 100 µM | SK-OV-3 > 100 µM | TK-10 > 100 µM | OVCAR-3 > 100 µM | SW-620 > 100 µM | SK-MEL-28 > 100 µM | HOP-92 > 100 µM | SK-MEL-2 > 100 µM

CCC1=CCN(c2cc(C)ccn2)OC1c1ccccc1 (stereo unspecified)
inactive: NCI-H522 18.5 µM | SR 21.1 µM | U-251 22.8 µM | HCT-116 30.8 µM | UACC-257 33.3 µM | NCI-H23 25.4 µM | IGROV-1 67.8 µM | SNB-75 45.6 µM | SK-OV-3 71.3 µM | HCC 2998 33.3 µM | OVCAR-3 65.6 µM | SW-620 32.2 µM | SK-MEL-28 23.9 µM | SK-MEL-2 21.4 µM

CC1(C2CCC3(C)C(C2)C3Sc2ccccc2)OCCO1 (stereo unspecified)
inactive: NCI-H522 18.9 µM | SK-MEL-5 17.3 µM | U-251 19.8 µM | HCT-116 15.5 µM | UACC-257 17.5 µM | NCI-H23 22.4 µM | IGROV-1 35.7 µM | SNB-75 54.6 µM | SK-OV-3 33 µM | TK-10 56.6 µM | HCC 2998 20.1 µM | OVCAR-3 14.4 µM | SW-620 21.5 µM | SK-MEL-28 24.9 µM | HOP-92 23.3 µM | SK-MEL-2 16.8 µM

CSc1nc(NC2OC(COC(C)=O)C(OC(C)=O)C(OC(C)=O)C2OC(C)=O)c2c(n1)OCC2=O (stereo unspecified)
inactive: NCI-H522 > 100 µM | SK-MEL-5 > 100 µM | SR > 100 µM | U-251 > 100 µM | HCT-116 > 100 µM | UACC-257 > 100 µM | NCI-H23 > 100 µM | IGROV-1 > 100 µM | SNB-75 > 100 µM | SK-OV-3 > 100 µM | TK-10 > 100 µM | OVCAR-3 > 100 µM | SW-620 > 100 µM | SK-MEL-28 > 100 µM | HOP-92 > 100 µM | SK-MEL-2 > 100 µM

N#CC1(Cc2ccccc2)CCCCN1C(=O)c1ccccc1 (stereo unspecified)
inactive: SK-MEL-5 > 100 µM | SR 44.7 µM | U-251 > 100 µM | HCT-116 > 100 µM | UACC-257 > 100 µM | NCI-H23 > 100 µM | IGROV-1 > 100 µM | SNB-75 > 100 µM | SK-OV-3 > 100 µM | TK-10 > 100 µM | HCC 2998 > 100 µM | OVCAR-3 > 100 µM | SW-620 > 100 µM | SK-MEL-28 > 100 µM | HOP-92 > 100 µM | SK-MEL-2 1.42 µM

OC1(C23CC4CC(CC(C4)C2)C3)CSCC1(O)C12CC3CC(CC(C3)C1)C2 (stereo unspecified)
inactive: NCI-H522 > 100 µM | SK-MEL-5 > 100 µM | SR > 100 µM | HCT-116 > 100 µM | UACC-257 > 100 µM | NCI-H23 > 100 µM | IGROV-1 > 100 µM | SNB-75 > 100 µM | SK-OV-3 > 100 µM | TK-10 > 100 µM | HCC 2998 > 100 µM | OVCAR-3 > 100 µM | SW-620 > 100 µM | SK-MEL-28 > 100 µM | HOP-92 > 100 µM | SK-MEL-2 > 100 µM

NC1=NC(c2ccccc2)CC(c2cc(Cl)ccc2O)=N1 (stereo unspecified)
inactive: NCI-H522 15.5 µM | SR 15.8 µM | U-251 16.3 µM | HCT-116 14 µM | UACC-257 19.9 µM | NCI-H23 15.5 µM | IGROV-1 19.3 µM | SNB-75 17.7 µM | SK-OV-3 17.9 µM | TK-10 25.1 µM | HCC 2998 15.9 µM | OVCAR-3 17.5 µM | SW-620 14.1 µM | SK-MEL-28 18.7 µM | HOP-92 19.1 µM

CCOC(=O)[C@H](Cc1ccccc1)NC(=O)c1nc[nH]c1[N+](=O)[O-]
inactive: NCI-H522 > 100 µM | SK-MEL-5 > 100 µM | SR > 100 µM | U-251 > 100 µM | HCT-116 > 100 µM | UACC-257 > 100 µM | NCI-H23 > 100 µM | IGROV-1 > 100 µM | SNB-75 > 100 µM | SK-OV-3 > 100 µM | TK-10 > 100 µM | HCC 2998 > 100 µM | OVCAR-3 > 100 µM | SW-620 > 100 µM | SK-MEL-28 > 100 µM | SK-MEL-2 > 100 µM

C=CC1[C@H]2COC(C)(C)O[C@@H]2CC(=O)C1(C)C (stereo partly specified)
inactive: NCI-H522 > 100 µM | U-251 > 100 µM | HCT-116 > 100 µM | UACC-257 > 100 µM | NCI-H23 > 100 µM | SNB-75 > 100 µM | TK-10 > 100 µM | HCC 2998 > 100 µM | SW-620 > 100 µM | SK-MEL-28 > 100 µM | HOP-92 > 100 µM | SK-MEL-2 > 100 µM

CC1CC2OC(=O)CC2C[C@@H]1O[Si](C)(C)C(C)(C)C (stereo partly specified)
inactive: SK-MEL-5 27 µM | HCT-116 38.5 µM | UACC-257 61.8 µM | NCI-H23 63 µM | IGROV-1 74.5 µM | SNB-75 51.4 µM | SK-OV-3 > 100 µM | TK-10 > 100 µM | HCC 2998 43.3 µM | OVCAR-3 40.4 µM | SW-620 > 100 µM | HOP-92 3.68 µM | SK-MEL-2 83.4 µM

C[C@@H]1C[C@H]2[C@@H]3CCC4=CC(=O)C=C[C@]4(C)[C@@]3(F)[C@@H](O)C[C@]2(C)[C@@]1(O)C(=O)CO [DEXAMETHASONE]
inactive: NCI-H522 > 100 µM | SK-MEL-5 > 100 µM | SR 49.3 µM | HCT-116 > 100 µM | UACC-257 > 100 µM | NCI-H23 > 100 µM | IGROV-1 > 100 µM | SK-OV-3 > 100 µM | TK-10 > 100 µM | OVCAR-3 > 100 µM | SW-620 > 100 µM | SK-MEL-28 > 100 µM | HOP-92 > 100 µM | SK-MEL-2 > 100 µM
